Results as given in patent US20180110762A1, “Compositions Methods for Treating Chronic Kidney Disease” (Merck Sharp & Dohme Corp, priority 2015, published 2018).

Assays:
[1] = ZSF1 rat 28-week in-feed study: body weight, food and water intake; assay type: in vivo; conditions: obese ZSF1 rats
Method: The effects of Compound A (“A”) on renal function, plasma triglycerides, plasma cholesterol, kidney collagen I, kidney collagen III, renal histology, glomerular filtration rate, fibrosis score, and mRNA gene expression (profibrotic genes and integrin β3) were evaluated in male obese ZSF1 rats (a hybrid F1 of Zucker diabetic fatty rat and spontaneously hypertensive heart failure rat; a diabetic nephropathy model) when administered as in-feed for 28 weeks. Sixty obese male ZSF1 rats were randomized to five groups: Obese control (n=12), Compound A 60 mpk (n=12), Compound A 200 mpk (n=12), Compound A 400 mpk (n=12), Enalapril 10 mpk (n=12); Eight lean male ZSF1 rats were used for normal control. Renal functional changes were monitored by blood and urine analysis following in-feed dosing for 28 weeks. Compound exposure was also monitored during the study.

[2] = molecular target: T1, Human recombinant integrin αvβ3 (Homo sapiens, UniProt P05106+P06756); test: Thermal shift assay (differential scanning fluorimetry), αvβ3; assay type: binding; conditions: αvβ3, 20 μM Compound A
T1 construct: purchased R&D Systems
T1 sequence (P06756 31-992 limits assumed): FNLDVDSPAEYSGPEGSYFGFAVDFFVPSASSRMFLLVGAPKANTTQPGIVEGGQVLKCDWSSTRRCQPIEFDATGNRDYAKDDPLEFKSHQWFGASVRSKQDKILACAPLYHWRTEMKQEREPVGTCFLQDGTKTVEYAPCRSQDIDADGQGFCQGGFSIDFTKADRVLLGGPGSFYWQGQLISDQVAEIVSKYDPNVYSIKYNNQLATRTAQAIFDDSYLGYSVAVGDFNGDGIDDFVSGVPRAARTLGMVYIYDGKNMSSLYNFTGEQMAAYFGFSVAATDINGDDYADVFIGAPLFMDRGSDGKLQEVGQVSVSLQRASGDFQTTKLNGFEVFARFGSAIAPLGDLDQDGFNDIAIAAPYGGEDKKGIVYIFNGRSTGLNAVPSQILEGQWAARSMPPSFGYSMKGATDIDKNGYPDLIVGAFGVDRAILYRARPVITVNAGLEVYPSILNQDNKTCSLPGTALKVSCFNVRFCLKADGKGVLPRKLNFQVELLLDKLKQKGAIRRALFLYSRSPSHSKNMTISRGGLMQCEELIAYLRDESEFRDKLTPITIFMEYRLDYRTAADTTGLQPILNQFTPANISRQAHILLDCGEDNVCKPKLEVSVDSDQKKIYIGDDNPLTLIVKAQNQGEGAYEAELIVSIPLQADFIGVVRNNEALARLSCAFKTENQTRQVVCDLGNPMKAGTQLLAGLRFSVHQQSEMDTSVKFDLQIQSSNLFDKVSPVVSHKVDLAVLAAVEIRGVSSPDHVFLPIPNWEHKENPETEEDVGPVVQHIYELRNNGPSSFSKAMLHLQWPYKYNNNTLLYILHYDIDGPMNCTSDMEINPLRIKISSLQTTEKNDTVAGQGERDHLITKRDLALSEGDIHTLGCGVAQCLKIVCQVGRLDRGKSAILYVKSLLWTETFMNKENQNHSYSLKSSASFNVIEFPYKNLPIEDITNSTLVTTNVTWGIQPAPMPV
T1 sequence (P05106 27-718 limits assumed): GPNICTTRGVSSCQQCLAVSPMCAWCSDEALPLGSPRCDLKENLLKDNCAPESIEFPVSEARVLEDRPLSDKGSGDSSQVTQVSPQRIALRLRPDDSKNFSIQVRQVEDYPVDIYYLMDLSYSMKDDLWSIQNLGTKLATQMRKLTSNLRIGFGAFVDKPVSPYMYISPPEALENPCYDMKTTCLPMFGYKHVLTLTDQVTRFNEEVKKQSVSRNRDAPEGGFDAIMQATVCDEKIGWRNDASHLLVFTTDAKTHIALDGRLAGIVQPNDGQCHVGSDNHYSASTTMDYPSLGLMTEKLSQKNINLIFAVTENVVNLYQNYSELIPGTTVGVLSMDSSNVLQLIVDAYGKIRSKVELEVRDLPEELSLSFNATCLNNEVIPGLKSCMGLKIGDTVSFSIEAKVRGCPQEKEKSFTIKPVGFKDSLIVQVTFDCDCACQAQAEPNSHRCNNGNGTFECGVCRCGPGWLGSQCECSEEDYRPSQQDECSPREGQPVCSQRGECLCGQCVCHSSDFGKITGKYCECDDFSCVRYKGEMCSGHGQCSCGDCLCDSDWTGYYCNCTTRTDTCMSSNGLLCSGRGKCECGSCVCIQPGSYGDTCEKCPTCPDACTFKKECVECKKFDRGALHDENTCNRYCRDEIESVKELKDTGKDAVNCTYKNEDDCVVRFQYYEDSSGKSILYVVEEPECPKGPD
Method: Differential scanning fluorimetry was performed on a LightCycler 480 II, real-time PCR instrument (Roche Diagnostics). Human recombinant integrins from R&D Systems (αvβ1, αvβ3 and α5β1) were reconstituted at a concentration of […] in assay buffer (20 mM HEPES, pH=7.3, 100 mM NaCl, 1 mM MgCl2, 1 mM MnCl2) and diluted in assay buffer with Sypro orange (SIGMA) to a final concentration of 400 nM integrin and 5× Sypro orange. A volume of 4.9 μL of this mixture of protein and dye was transferred to a 384-well plate and 100 nL of DMSO or Compound A, dissolved in DMSO, were added using an Echo 555 instrument (Labcyte). The final concentration of Compound A in the assay was 20 μM. After mixing, the assay plate was sealed, spun at 1,000×g for two minutes, and subsequently heated from 25 to 99° C. over the course of 31 min in the LightCycler 480 II instrument. Fluorescence intensity was measured using excitation/emission wavelengths of 465 and 580 nm, respectively. Changes in protein thermal stability (ΔTm) upon compound binding were analyzed by using LightCycler 480 (software provided by the manufacturer).

ΔTm at 20 µM ([2]; first of two experiments): 21.5 °C
ΔTm at 20 µM ([2]; second of two experiments): 16.4 °C
SMILES: COc1ccc([C@H](CC(=O)O)N2CCN(CCCc3ccc4c(n3)NCCC4)C2=O)cn1 [Compound A, 3-{2-Oxo-3-[3-(5,6,7,8-tetrahydro-[1,8]naphthyridin-2-yl)-propyl]imidazolidin-1-yl}-3 (S)-(6-methoxy-pyridin-3-yl)-propionic acid]
Body Weight ([1]; 60 mpk in-feed, week 1): 566.6 ± 7.3 grams
Food Intake ([1]; 60 mpk in-feed, week 1): 30.5 ± 1.2 grams/24 h
Water Intake ([1]; 60 mpk in-feed, week 1): 34.6 ± 3.4 mls/24 h
Body Weight ([1]; 60 mpk in-feed, week 2): 577.4 ± 7.2 grams
Food Intake ([1]; 60 mpk in-feed, week 2): 26.9 ± 1.0 grams/24 h
Water Intake ([1]; 60 mpk in-feed, week 2): 34.5 ± 2.2 mls/24 h
Body Weight ([1]; 60 mpk in-feed, week 4): 599.8 ± 7.4 grams
Food Intake ([1]; 60 mpk in-feed, week 4): 29.5 ± 2.1 grams/24 h
Water Intake ([1]; 60 mpk in-feed, week 4): 46.0 ± 5.7 mls/24 h
Body Weight ([1]; 60 mpk in-feed, week 6): 624.7 ± 9.0 grams
Food Intake ([1]; 60 mpk in-feed, week 6): 32.8 ± 0.9 grams/24 h
Water Intake ([1]; 60 mpk in-feed, week 6): 45.8 ± 4.5 mls/24 h
Body Weight ([1]; 60 mpk in-feed, week 8): 652.0 ± 9.4 grams
Food Intake ([1]; 60 mpk in-feed, week 8): 34.1 ± 1.1 grams/24 h
Water Intake ([1]; 60 mpk in-feed, week 8): 59.2 ± 4.5 mls/24 h
Body Weight ([1]; 60 mpk in-feed, week 10): 678.0 ± 10.9 grams
Body Weight ([1]; 60 mpk in-feed, week 12): 703.7 ± 11.9 grams
Food Intake ([1]; 60 mpk in-feed, week 12): 36.7 ± 1.6 grams/24 h
Water Intake ([1]; 60 mpk in-feed, week 12): 71.5 ± 4.9 mls/24 h
Body Weight ([1]; 60 mpk in-feed, week 14): 712.1 ± 12.7 grams
Body Weight ([1]; 60 mpk in-feed, week 16): 733.8 ± 13.2 grams
Food Intake ([1]; 60 mpk in-feed, week 16): 33.2 ± 1.3 grams/24 h
Water Intake ([1]; 60 mpk in-feed, week 16): 63.7 ± 4.9 mls/24 h
Body Weight ([1]; 60 mpk in-feed, week 18): 746.9 ± 14.1 grams
Body Weight ([1]; 60 mpk in-feed, week 21): 781.1 ± 14.1 grams
Food Intake ([1]; 60 mpk in-feed, week 21): 34.6 ± 1.6 grams/24 h
Water Intake ([1]; 60 mpk in-feed, week 21): 64.5 ± 8.5 mls/24 h
Body Weight ([1]; 60 mpk in-feed, week 24): 808.9 ± 14.6 grams
Food Intake ([1]; 60 mpk in-feed, week 24): 31.2 ± 1.0 grams/24 h
Water Intake ([1]; 60 mpk in-feed, week 24): 59.4 ± 4.7 mls/24 h
Body Weight ([1]; 60 mpk in-feed, week 28): 839.0 ± 14.9 grams
Food Intake ([1]; 60 mpk in-feed, week 28): 31.6 ± 1.0 grams/24 h
Water Intake ([1]; 60 mpk in-feed, week 28): 66.5 ± 6.6 mls/24 h
Body Weight ([1]; 60 mpk in-feed, week −2): 521.3 ± 6.9 grams
Food Intake ([1]; 60 mpk in-feed, week −2): 38.6 ± 1.0 grams/24 h
Water Intake ([1]; 60 mpk in-feed, week −2): 60.8 ± 4.5 mls/24 h
Body Weight ([1]; 200 mpk in-feed, week 1): 568.6 ± 7.4 grams
Food Intake ([1]; 200 mpk in-feed, week 1): 29.0 ± 1.0 grams/24 h
Water Intake ([1]; 200 mpk in-feed, week 1): 30.7 ± 1.9 mls/24 h
Body Weight ([1]; 200 mpk in-feed, week 2): 581.5 ± 7.0 grams
Food Intake ([1]; 200 mpk in-feed, week 2): 29.2 ± 1.1 grams/24 h
Water Intake ([1]; 200 mpk in-feed, week 2): 29.2 ± 2.5 mls/24 h
Body Weight ([1]; 200 mpk in-feed, week 4): 605.9 ± 7.1 grams
Food Intake ([1]; 200 mpk in-feed, week 4): 30.6 ± 1.0 grams/24 h
Water Intake ([1]; 200 mpk in-feed, week 4): 33.4 ± 2.0 mls/24 h
Body Weight ([1]; 200 mpk in-feed, week 6): 631.8 ± 7.7 grams
Food Intake ([1]; 200 mpk in-feed, week 6): 34.3 ± 1.6 grams/24 h
Water Intake ([1]; 200 mpk in-feed, week 6): 39.4 ± 2.8 mls/24 h
Body Weight ([1]; 200 mpk in-feed, week 8): 663.0 ± 7.4 grams
Food Intake ([1]; 200 mpk in-feed, week 8): 31.8 ± 1.2 grams/24 h
Water Intake ([1]; 200 mpk in-feed, week 8): 51.4 ± 4.6 mls/24 h
Body Weight ([1]; 200 mpk in-feed, week 10): 690.6 ± 8.5 grams
Body Weight ([1]; 200 mpk in-feed, week 12): 718.9 ± 9.3 grams
Food Intake ([1]; 200 mpk in-feed, week 12): 35.6 ± 0.9 grams/24 h
Water Intake ([1]; 200 mpk in-feed, week 12): 63.9 ± 4.8 mls/24 h
Body Weight ([1]; 200 mpk in-feed, week 14): 729.3 ± 11.9 grams
Body Weight ([1]; 200 mpk in-feed, week 16): 754.1 ± 11.9 grams
Food Intake ([1]; 200 mpk in-feed, week 16): 33.6 ± 1.5 grams/24 h
Water Intake ([1]; 200 mpk in-feed, week 16): 57.3 ± 5.0 mls/24 h
Body Weight ([1]; 200 mpk in-feed, week 18): 772.3 ± 13.1 grams
Body Weight ([1]; 200 mpk in-feed, week 21): 800.2 ± 13.9 grams
Food Intake ([1]; 200 mpk in-feed, week 21): 35.6 ± 0.9 grams/24 h
Water Intake ([1]; 200 mpk in-feed, week 21): 58.1 ± 3.6 mls/24 h
Body Weight ([1]; 200 mpk in-feed, week 24): 825.7 ± 14.7 grams
Food Intake ([1]; 200 mpk in-feed, week 24): 31.7 ± 1.2 grams/24 h
Water Intake ([1]; 200 mpk in-feed, week 24): 61.8 ± 3.5 mls/24 h
Body Weight ([1]; 200 mpk in-feed, week 28): 848.1 ± 16.4 grams
Food Intake ([1]; 200 mpk in-feed, week 28): 33.3 ± 1.2 grams/24 h
Water Intake ([1]; 200 mpk in-feed, week 28): 70.5 ± 5.6 mls/24 h
Body Weight ([1]; 200 mpk in-feed, week −2): 520.6 ± 6.4 grams
Food Intake ([1]; 200 mpk in-feed, week −2): 37.7 ± 1.4 grams/24 h
Water Intake ([1]; 200 mpk in-feed, week −2): 59.1 ± 5.9 mls/24 h
Body Weight ([1]; 400 mpk in-feed, week 1): 568.3 ± 6.5 grams
Food Intake ([1]; 400 mpk in-feed, week 1): 30.0 ± 1.6 grams/24 h
Water Intake ([1]; 400 mpk in-feed, week 1): 37.6 ± 2.8 mls/24 h
Body Weight ([1]; 400 mpk in-feed, week 2): 582.8 ± 6.5 grams
Food Intake ([1]; 400 mpk in-feed, week 2): 32.0 ± 1.2 grams/24 h
Water Intake ([1]; 400 mpk in-feed, week 2): 40.3 ± 3.1 mls/24 h
Body Weight ([1]; 400 mpk in-feed, week 4): 604.1 ± 7.2 grams
Food Intake ([1]; 400 mpk in-feed, week 4): 33.6 ± 0.9 grams/24 h
Water Intake ([1]; 400 mpk in-feed, week 4): 45.0 ± 3.7 mls/24 h
Body Weight ([1]; 400 mpk in-feed, week 6): 631.8 ± 8.9 grams
Food Intake ([1]; 400 mpk in-feed, week 6): 34.6 ± 1.2 grams/24 h
Water Intake ([1]; 400 mpk in-feed, week 6): 49.9 ± 4.8 mls/24 h
Body Weight ([1]; 400 mpk in-feed, week 8): 654.5 ± 10.6 grams
Food Intake ([1]; 400 mpk in-feed, week 8): 34.2 ± 1.4 grams/24 h
Water Intake ([1]; 400 mpk in-feed, week 8): 62.2 ± 5.6 mls/24 h
Body Weight ([1]; 400 mpk in-feed, week 10): 676.5 ± 12.7 grams
Body Weight ([1]; 400 mpk in-feed, week 12): 704.8 ± 12.8 grams
Food Intake ([1]; 400 mpk in-feed, week 12): 35.7 ± 0.7 grams/24 h
Water Intake ([1]; 400 mpk in-feed, week 12): 63.5 ± 5.3 mls/24 h
Body Weight ([1]; 400 mpk in-feed, week 14): 704.4 ± 14.6 grams
Body Weight ([1]; 400 mpk in-feed, week 16): 739.3 ± 15.0 grams
Food Intake ([1]; 400 mpk in-feed, week 16): 33.6 ± 0.7 grams/24 h
Water Intake ([1]; 400 mpk in-feed, week 16): 63.0 ± 3.9 mls/24 h
Body Weight ([1]; 400 mpk in-feed, week 18): 757.9 ± 16.9 grams
Body Weight ([1]; 400 mpk in-feed, week 21): 791.2 ± 18.4 grams
Food Intake ([1]; 400 mpk in-feed, week 21): 36.0 ± 1.2 grams/24 h
Water Intake ([1]; 400 mpk in-feed, week 21): 59.3 ± 4.4 mls/24 h
Body Weight ([1]; 400 mpk in-feed, week 24): 823.8 ± 18.9 grams
Food Intake ([1]; 400 mpk in-feed, week 24): 33.3 ± 1.5 grams/24 h
Water Intake ([1]; 400 mpk in-feed, week 24): 67.2 ± 4.8 mls/24 h
Body Weight ([1]; 400 mpk in-feed, week 28): 852.1 ± 19.5 grams
Food Intake ([1]; 400 mpk in-feed, week 28): 32.1 ± 1.7 grams/24 h
Water Intake ([1]; 400 mpk in-feed, week 28): 80.1 ± 4.6 mls/24 h
Body Weight ([1]; 400 mpk in-feed, week −2): 522.3 ± 7.1 grams
Food Intake ([1]; 400 mpk in-feed, week −2): 37.7 ± 1.1 grams/24 h
Water Intake ([1]; 400 mpk in-feed, week −2): 57.2 ± 4.9 mls/24 h
effect on body weight (BW) ([1]; in-feed for 28 weeks): no significant effect
effect on food intake (FI) ([1]; in-feed for 28 weeks): no significant effect
effect on water intake (WI) ([1]; in-feed for 28 weeks): no significant effect
